The record followed here is article PMC9031227, “Structure-Activity Relationship Investigations of Novel Constrained Chimeric Peptidomimetics of SOCS3 Protein Targeting JAK2” (Pharmaceuticals, 2022).

One may read the Kd as the free concentration of one partner at which half of the binding sites on the other are occupied at equilibrium, for simple one-to-one binding. A lower Kd goes with tighter binding.

“Also recorded” adds a separate entry of the source. Where a SMILES comes first, the peptide text is derived from it. Bridges are numbered along the chain shown (N, C = ends). [ ]: non-standard residue; d: D form. R8 = C=CCCCCCC[C@@](C)(N)C(=O)O; S5 = C=CCCC[C@](C)(N)C(=O)O; βAla = NCCC(=O)O

Data set [1] can be described thus: Serum stability in fetal bovine serum. The settings on record: 37 °C; for improvement of stability to proteases after 24 h: 25% FBS, 24 h of analysis, compared with the linear peptide; for metabolised at 3 h, 500 µM: read-out: degraded after 3 h of incubation. It is filed as in vitro ADME. On the procedure: KIRCONG analogues (~1 mg/mL, 500 μM on average), were incubated with fetal bovine serum (FBS) at 25% (w/v) at 37 °C as previously described. At the following time points: 0, 3, 17, 20, 23 and 42 h, 50 µL aliquots of the solutions were mixed with 50 µL of 15% trichloroacetic acid (TCA) to allow the precipitation of serum proteins, they were stored at −20 °C for at least 15 min. After centrifugation (13,000 rpm for 15 min) the supernatants were recovered. Samples were analyzed by RP-HPLC on a HPLC LC-4000 series (Jasco) equipped with UV detector using a C18-Kinetek column from Phenomenex (Milan, Italy), by employing a gradient from 5 to 70% of B (acetonitrile 0.1% TFA) versus A (water 0.1% TFA) in 20 min. Peptide compounds were detected by recording the absorbance at 210 nm and percentages were quantified by assuming 100% their peak areas at t = 0. All stability tests were performed at least in triplicates and reported data are averaged values.
To evaluate if introduced chemical modifications in KIRCONG analogues influence their stabilities to proteolytic degradation, pure compounds were incubated with fetal bovine serum (FBS) and the decrease of chromatographic peaks was followed during time In Figure 4, the area percentages of new derivatives of KIRCONG chim versus time are reported. After 3 h of incubation, KIRCONG chim is degraded by 30% while KIRCONG disulfide of 20% and others less than 10%.
Figure 4 Serum stability assay of KIRCONG chim derivatives. The serum stability was evaluated by incubation in 25% FBS for 42 h. Residual peptide amount is expressed as the percentage of the initial amount versus time.

Data set [2] has as its target T1, His-tagged Catalytic Domain of JAK2 (residues 826–1132) (Homo sapiens, UniProt O60674).
T1 construct: His-tagged Catalytic Domain of JAK2 (residues 826–1132); purchased Carna Biosciences
Briefly: MicroScale Thermophoresis (MST) binding to JAK2 catalytic domain. Particulars: RED-tris-NTA labelled His-JAK2 catalytic domain, 25 °C, 50 mM Tris-HCl, 150 mM NaCl, 0.05% Brij35, 1 mM DTT, 10% glycerol, 15% TFE, pH 7.5, Langmuir isotherm fit. On the procedure: MST experiments were carried out with a Monolith NT 115 system (NanoTemper Technologies, München, Germania) equipped with 40% LED and 40% IR-laser power. […] The protein concentration was adjusted to 200 nM in labeling buffer (Nano Temper Technologies), while the dye concentration was set to 100 nM. Equal volumes (100 μL) of protein and fluorescent dye solutions were mixed and incubated at room temperature in the dark for 30 min. KIRCONG chim analogues were used in the following concentrations: KIRCONG amide 459 μM, KIRCONG disulfide 470 μM, KIRCONG i/i+5 525 μM, and KIRCONG i/i+7 585 μM in labeling buffer. Standard capillaries were employed for analysis, at 25 °C in 50 mM Tris-HCl, 150 mM NaCl, 0.05% Brij35, 1 mM DTT, 10% glycerol, 15% TFE buffer at pH 7.5, as already reported. The equation implemented by the software MO-S002 MO Affinity Analysis, used for fitting data at different concentrations, is based on Langmuir binding isotherm.
To evaluate the ability of KIRCONG analogues to recognize JAK2 catalytic domain, in vitro MST experiments were carried out (Figure 5), keeping JAK2 concentration constant and increasing ligands’ concentrations.

A short description of data set [3]: Solubility observations in TFE/aqueous mixtures (CD and NMR samples). It is filed as physicochemical. On the procedure:
CD spectroscopy experiments were carried out by employing a Jasco J-815 spectropolarimeter (JASCO, Tokyo, Japan), at room temperature in the spectral range 190–260 nm and spectra are averaged over two scans, to which blanks were subtracted. CD signals were converted to mean residue ellipticity with deg* cm^2*dmol^−1*res^−1 as units. Scan speed value was 20 nm/min, band width 2.0 nm, resolution 0.2 nm, sensitivity 50 mdeg and response 4 s. Samples were prepared by dilution of freshly prepared stock solutions in 100% TFE (2,2,2-Trifluoroethanol) (1 mM on average). In the CD samples compound concentrations were 100 μM. Spectra were acquired in a quartz cuvette with a path-length of 0.1 cm in mixtures TFE/phosphate buffer, 10 mM at pH 7.4 [52].
NMR spectra of KIRCONG i/i+5 and KIRCONG i/i+7 stapled peptides were registered at 25 °C on a Varian Unity Inova 600 MHz spectrometer provided with a cold probe. […] NMR spectra for KIRCONG i/i+7 were recorded in H2O/TFE 60/40 v/v (peptide concentration 411 μM, pH 4.65). […] To conduct NMR structural analyses the following 2D [^1H, ^1H] experiments were recorded: TOCSY (Total Correlation Spectroscopy), NOESY (Nuclear Overhauser Enhancement Spectroscopy), ROESY (Rotating Frame Overhauser Enhancement Spectroscopy) and DQFCOSY (Double Quantum-Filtered Correlated Spectroscopy). […]

The mark [4] stands for this setting: 25% (w/v) fetal bovine serum, 25% (w/v) FBS, peptide ~1 mg/mL (500 µM on average), TCA precipitation, RP-HPLC C18, UV 210 nm, peak area vs t = 0, mean of at least triplicates.

T1 sequence (O60674 826-1132): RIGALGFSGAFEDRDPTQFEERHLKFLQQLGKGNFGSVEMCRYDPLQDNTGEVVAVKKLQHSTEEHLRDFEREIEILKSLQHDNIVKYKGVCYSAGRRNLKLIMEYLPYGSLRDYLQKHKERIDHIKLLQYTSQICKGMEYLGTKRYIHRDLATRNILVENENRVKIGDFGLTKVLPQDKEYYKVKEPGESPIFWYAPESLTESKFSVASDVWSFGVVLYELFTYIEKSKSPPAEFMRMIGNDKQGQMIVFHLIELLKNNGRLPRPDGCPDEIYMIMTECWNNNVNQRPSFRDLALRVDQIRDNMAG

Consider `CC(C)C[C@@H]1NC(=O)[C@H](CCC(N)=O)NC(=O)[C@H](Cc2ccc(O)cc2)NC(=O)[C@H](CCC(=O)O)NC(=O)[C@H](CO)NC(=O)[C@H](CCCCN)NC(=O)[C@H](CO)NC(=O)[C@H](CO)NC(=O)[C@H](Cc2ccccc2)NC(=O)CCNC(=O)[C@@H](N)CCCCNC(=O)CC[C@@H](C(=O)NCC(=O)O)NC(=O)[C@H]([C@@H](C)O)NC(=O)[C@H](C(C)C)NC(=O)[C@H](C)NC(=O)[C@H](CO)NC(=O)[C@H](Cc2c[nH]c3ccccc23)NC(=O)[C@H](Cc2ccc(O)cc2)NC(=O)[C@H](Cc2ccccc2)NC(=O)CCNC(=O)CCNC1=O` [KIRCONG amide] (H-K[βAla]FSSKSEYQL[βAla][βAla]FYWSAVTEG-OH; lactam 1-21), for which, in data set [1], the “improvement of stability to proteases after 24 h” value was “do not produce a significant improvement of stability”. Moreover, the Kd in data set [2] turned out to be 200 µM.
Regarding `CC(=O)N[C@@H](CCCCN)C(=O)NCCC(=O)N[C@@H](Cc1ccccc1)C(=O)N[C@@H](CO)C(=O)N[C@@H](CO)C(=O)N[C@@H](CCCCN)C(=O)N[C@@H](CO)C(=O)N[C@@H](CCC(=O)O)C(=O)N[C@@H](Cc1ccc(O)cc1)C(=O)N[C@@H](CCC(N)=O)C(=O)N[C@@H](CC(C)C)C(=O)NCCC(=O)NCCC(=O)N[C@@H](Cc1ccccc1)C(=O)N[C@@H](Cc1ccc(O)cc1)C(=O)N[C@@H](Cc1c[nH]c2ccccc12)C(=O)N[C@@H](CO)C(=O)N[C@@H](C)C(=O)N[C@H](C(=O)N[C@H](C(N)=O)[C@@H](C)O)C(C)C` [KIRCONG chim, reference compound] (Ac-K[βAla]FSSKSEYQL[βAla][βAla]FYWSAVT-NH2), in data set [1] (25% (w/v) FBS, peptide ~1 mg/mL (500 µM on average), 42 h, TCA precipitation, RP-HPLC C18, UV 210 nm, peak area vs t = 0, mean of at least triplicates), the “residual concentration after 42 h” value is given as “completely degraded”. Besides, the metabolised at 3 h, 500 µM in data set [1] (setting [4]) worked out at 30%.
On to `CC(C)C[C@@H]1NC(=O)[C@H](CCC(N)=O)NC(=O)[C@H](Cc2ccc(O)cc2)NC(=O)[C@H](CCC(=O)O)NC(=O)[C@H](CO)NC(=O)[C@H](CCCCN)NC(=O)[C@H](CO)NC(=O)[C@H](CO)NC(=O)[C@H](Cc2ccccc2)NC(=O)CCNC(=O)[C@@H](N)CSSC[C@@H](C(=O)NCC(=O)O)NC(=O)[C@H]([C@@H](C)O)NC(=O)[C@H](C(C)C)NC(=O)[C@H](C)NC(=O)[C@H](CO)NC(=O)[C@H](Cc2c[nH]c3ccccc23)NC(=O)[C@H](Cc2ccc(O)cc2)NC(=O)[C@H](Cc2ccccc2)NC(=O)CCNC(=O)CCNC1=O` [KIRCONG disulfide] (H-C[βAla]FSSKSEYQL[βAla][βAla]FYWSAVTCG-OH; disulfide 1-21), for which the metabolised at 3 h, 500 µM in data set [1] (setting [4]) was 20%. In addition, the “improvement of stability to proteases after 24 h” value in data set [1] is “do not produce a significant improvement of stability”. This compound returned a Kd in data set [2] of 600 µM.
For the compound `CC(C)C[C@H](NC(=O)[C@H](CCC(N)=O)NC(=O)[C@H](Cc1ccc(O)cc1)NC(=O)[C@H](CCC(=O)O)NC(=O)[C@H](CO)NC(=O)[C@H](CCCCN)NC(=O)[C@H](CO)NC(=O)[C@H](CO)NC(=O)[C@@H](N)Cc1ccccc1)C(=O)NCCC(=O)N[C@@]1(C)CCCC=CCCC[C@@](C)(C(=O)N[C@H](C(=O)N[C@H](C(=O)NCC(=O)O)[C@@H](C)O)C(C)C)NC(=O)[C@H](CO)NC(=O)[C@H](Cc2c[nH]c3ccccc23)NC(=O)[C@H](Cc2ccc(O)cc2)NC(=O)[C@H](Cc2ccccc2)NC1=O` [KIRCONG i/i+5] (H-FSSKSEYQL[βAla][S5]FYWS[S5]VTG-OH; staple 11-16), the remaining at 42 h, 500 µM in data set [1] (25% (w/v) fetal bovine serum, 25% (w/v) FBS, peptide ~1 mg/mL (500 µM on average), 42 h, TCA precipitation, RP-HPLC C18, UV 210 nm, peak area vs t = 0, mean of at least triplicates, read-out: residual concentration after 42 h) stood at 85%. The KD result in data set [2] is on record as “did not allow to obtain KD values; also recorded: No binding”.
Consider `CC(C)C[C@@H]1NC(=O)[C@](C)(NC(=O)[C@H](Cc2ccc(O)cc2)NC(=O)[C@H](CCC(=O)O)NC(=O)[C@H](CO)NC(=O)[C@H](CCCCN)NC(=O)[C@H](CO)NC(=O)[C@H](CO)NC(=O)[C@@H](N)Cc2ccccc2)CCCCCC/C=C/CCC[C@@](C)(C(=O)N[C@H](C(=O)N[C@H](C(=O)NCC(=O)O)[C@@H](C)O)C(C)C)NC(=O)[C@H](CO)NC(=O)[C@H](Cc2c[nH]c3ccccc23)NC(=O)[C@H](Cc2ccc(O)cc2)NC(=O)[C@H](Cc2ccccc2)NC(=O)CCNC1=O` [KIRCONG i/i+7] (H-FSSKSEY[R8]L[βAla]FYWS[S5]VTG-OH; staple (E) 8-15), for which the “solubility at NMR concentration in 15% TFE” value in data set [3] (H2O/TFE 85/15 v/v, NMR peptide concentration 411 µM) was “poorly soluble”. In addition, the “solubility in TFE/phosphate buffer (CD sample)” value in data set [3] (TFE/phosphate buffer 10 mM pH 7.4, CD sample concentration 100 µM, diluted from 100% TFE stock) is recorded as “not soluble”. Besides, the KD entry in data set [2] is reported as “did not allow to obtain KD values; also recorded: No binding”.
